How the values were obtained:
[1] = tested on: human fetal neurons; settings: for neuroprotection against synergistic toxicity of HIV proteins plus cocaine (percent neuronal death): pretreatment before Tat1-72 (40 nM) + gp120 (32.5 pM) + cocaine (1.6 μM); for magnitude of cell death vs Locke's buffer control: HIV proteins plus cocaine challenge with steroid pretreatment
Protocol: Culture of Human Brain Cells: Neuronal cultures were prepared as described previously (Magnuson D S, et al. Ann Neurol 1995, 37: 373-380; Nath A, et al. J Virol 1996, 70: 1475-1480; New D, et al. J Neurovirol 1997, 3: 168-173). Human fetal brain specimens of gestational age 12-14 weeks were obtained with the consent of women opting for elective termination of pregnancy. Protocols were carried out with strict adherence to the guidelines of the National Institutes of Health (NIH) and with approval from the University of Kentucky Institutional Review Board. Briefly, after mechanical dissociation, the cells were suspended in Opti-MEM with 5% heat-inactivated fetal bovine serum, 0.2% N2 supplement and 1% antibiotic solution (penicillin G sodium 104 units/ml, streptomycin sulfate 10 μg/ml and amphotericin-B 25 μg/ml) (GIBCO). The cells were maintained in culture flasks at 37° C. in a humidified atmosphere of 5% CO2 and 95% air for at least a month. At least 3 days before the experiment was performed the cells were plated in flat bottom 96 well plates coated with poly-d-lysine. Sample cultures were stained for the neuron-specific enolase, microtubule-associated protein-2, synaptophysin, and glial fibrillary astrocytic protein (GFAP). […] Sample cultures were further characterized for the presence of ER-α and ER-β and dopaminergic neurons.
Neurotoxicity Assay: At the time of the experimental treatment, the culture media was replaced with Locke's buffer containing (in mM) 154 NaCl, 5.6 KCl, 2.3 CaCl2, 1 MgCl2, 3.6 NaHCO3, 5 glucose, 5 N-2-hydroxyethylpiperazine-N′2-ethanesulfonic acid (HEPES) and 1% antibiotic solution (penicillin G sodium 104 units/ml, streptomycin sulfate 10 μg/ml and amphotericin-B 25 μg/ml) (pH 7.2). […] To replicate the stereoisomer specific neuroprotective properties of estrogen, the cultures were treated with either […] (10 nM), or 17α-E2 (10 nM) immediately preceding addition of the HIV proteins plus cocaine. To investigate the neuroprotective properties of other gonadal steroids, the cells were treated with various concentrations of PROG or T, immediately followed by exposure to the HIV proteins plus cocaine. […] Various concentrations of cholesterol were used as treatment prior to incubation with the HIV proteins plus cocaine to further characterize the nature of gonadal steroid neuroprotection. ICI-182,780, DMSO (10 nM), β-cyclodextrin (100 nM) and ethanol (10 nM) were also tested for neurotoxic/protective effects. ICI-182,780 and 17α-E2 were solvated in DMSO. […], T, PROG and cholesterol were β-cyclodextrin encapsulated to provide water solubility. Ethanol was used to solvate DHT. Tat1-72 was produced as indicated above, whereas gp120 was a gift from Chiron Corporation. The ICI-182,780 compound was obtained from Tocris Cookson, Inc. (Ellisville, Mo.). All other chemical agents were supplied by Sigma Chemicals (St. Louis, Mo.). At the end of the incubation period neuronal death was assessed by trypan blue (Sigma) exclusion assay as described previously (Vongher J and Frye C. Pharmacol Biochem Behav 1999, 64: 777-785; Magnuson D S, et al. Ann Neurol 1995, 37: 373-380; Nath A, et al. J Virol 1996, 70: 1475-1480).

[2] = tested on: SK-N-SH cells; assay: DCFH fluorescence (oxidative stress) in SK-N-SH cells; type: cell-based, human; settings: for effect of hormone on tat+gp120-induced fluorescence: gp120 (30 pM)+tat (60 nM), hormone 0.1 to 100 nM
Protocol: Cell Culture Assays: SK-N-SH cells (ATCC) were grown in RPMI 1640 with 1% streptomycin/amphotericin and 10% FBS and incubated at 37° C. in the presence of 5% CO2. Cells were subcultured into 96-well plates at a density of 10^4 cell/well and used within 24 hours. Plates were first washed with warmed Krebs buffer (KHB). Stock DCFH in DMSO was diluted in KHB to a final concentration of 100 μM and incubated in each well for 30 minutes. DCFH dye was removed and cells were washed with warmed KHB and the appropriate drug or drug combination was added. Plates were returned to the incubator and drugs were allowed to incubate for 30 minutes. Incubation with the free radical generator SIN-1 (3-morpholinosydnonimine-peroxynitrite and superoxide) was carried out for an additional 30 minutes. The second series of experiments utilized tat (10-250 nM) or gp120 (25-100 pM) in place of the free radical generator.
The concentration of either E2 or progesterone was 0.1 to 100 nM. Plates were returned to the incubator with the hormones and were allowed to incubate for 15 minutes. SIN-1 (50 μM) was chosen as the free radical generator due to the production of peroxynitrite. Previous studies have shown that this concentration of SIN-1 yielded maximum increases in DCFH fluorescence (Wang and Joseph, 1999). In groups that examined the protective effects of E2 and/or progesterone, the hormone was added 15 minutes prior to addition of SIN-1, tat or gp120. Studies that have examined the simultaneous addition of the oxidative stress agent and hormone have yielded attenuated results. Following incubation with SIN-1, tat or gp120 (depending on the assay), fluorescence was determined by using a Bio-Tek plate reader with the settings of 485 n (excitation) and 585 nm (emission) with an integration time of 40 ms. Assays were run four separate times in triplicate. Data are expressed as mean of the separate assays±SEM.

[3] = target: T1, dopamine transporter (Rattus norvegicus, UniProt P23977); assay: [3H] dopamine uptake in rat striatal synaptosomes; type: biochemical
T1 construct: followed by differential centrifugation resulting in a crude P2 preparation; from tissue; host or cells: rat striatum (synaptosomes, crude P2 preparation)
T1 sequence (P23977 whole entry): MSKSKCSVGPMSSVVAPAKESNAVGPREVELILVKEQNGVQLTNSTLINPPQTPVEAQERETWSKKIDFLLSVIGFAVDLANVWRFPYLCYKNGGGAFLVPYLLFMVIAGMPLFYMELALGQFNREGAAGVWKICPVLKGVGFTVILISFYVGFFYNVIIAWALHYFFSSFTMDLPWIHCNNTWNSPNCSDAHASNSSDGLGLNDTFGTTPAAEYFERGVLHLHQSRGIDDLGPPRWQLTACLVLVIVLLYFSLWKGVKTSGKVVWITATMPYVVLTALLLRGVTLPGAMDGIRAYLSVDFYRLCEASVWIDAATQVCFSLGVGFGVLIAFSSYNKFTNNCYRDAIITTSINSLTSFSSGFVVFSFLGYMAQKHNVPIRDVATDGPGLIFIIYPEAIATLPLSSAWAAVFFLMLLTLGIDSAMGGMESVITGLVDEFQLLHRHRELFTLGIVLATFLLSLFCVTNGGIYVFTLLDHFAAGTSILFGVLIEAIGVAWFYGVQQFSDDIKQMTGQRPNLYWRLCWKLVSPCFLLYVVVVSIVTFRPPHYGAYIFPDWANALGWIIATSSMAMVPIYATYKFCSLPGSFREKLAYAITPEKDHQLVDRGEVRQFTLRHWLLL
Protocol: [^3H] Dopamine uptake in synaptosomes assays: Striatal tissue from 4-5 month old male Sprague-Dawley rats (N=4) was homogenized in 5 mL ice-cold 0.32 M sucrose using a glass/Teflon homogenizer followed by differential centrifugation resulting in a crude P2 preparation. Crude P2 preparations are resuspended to a final volume of 15 mL (0.13-0.15 μg protein/tube) in assay buffer (consisting of 25 mM HEPES, 120 mM NaCl, 5 mM KCl, 2.5 mM CaCl2, 1.2 mM MgSO4, […] ascorbic acid, 1 μM pargyline and 2 mg/mL D-(+) glucose). P2 preparation was then added to assay tubes in 400 μL, followed by 50 μL of buffer or drug. Uptake was initiated by the addition of [7, 8 ^3H] dopamine, 0.02 M acetic acid:ethanol (1:1) solution (Amersham Biosciences, UK). Synaptosomes were preincubated first with 100 nM E2 30 minutes to the initiation of uptake, followed by addition of the appropriate concentrations of gp120 (30 pM) and tat (60 nM), or both proteins, 15 minutes prior to the start of the uptake assay. […] Filters were washed 15 seconds with ice-cold 0.9% NaCl and total [^3H] dopamine uptake was determined by scintillation spectrophotometry. Nonspecific uptake was determined in a parallel set of tubes run in the presence of 1 μM Mazindol, a dopamine uptake inhibitor. Data are expressed as the mean±SEM (N=4).

[4] = tested on: Sprague-Dawley rats; assay: Neonatal hippocampal gp120 injections with or without apomorphine: PPI in adult rats; type: in vivo, rat
[5] = tested on: rat hippocampal neurons; assay: Live/Dead (Calcein/Ethidium) viability of rat hippocampal neuronal cultures
[6] = HIV proteins plus cocaine challenge

C[C@]12CC[C@@H]3c4ccc(O)cc4CC[C@H]3[C@@H]1CC[C@@H]2O [E2, 17β-estradiol]
neuroprotection against synergistic toxicity of HIV proteins plus cocaine (percent neuronal death) ([1]; 15 hours): precluded by pretreatment with 10 nM dose of 17β-E2
SIN-1-induced fluorescence at highest concentration of E2 ([2]; 100 nM E2, 50 μM SIN-1): reduced fluorescence levels to control values
lowest E2 concentration with significant reduction of SIN-1-induced fluorescence ([2]; 50 μM SIN-1, E2 0.1 to 100 nM): 1 nM
effect of hormone on tat+gp120-induced fluorescence [2]: concentrations of 1, 10 and 100 nM E2 were each significantly (p<0.001) different from control values
Vmax with gp120 + tat + E2 ([3]; 100 nM E2 with gp120 and tat, control 231): 220 nmol/mg protein/minute
effect of E2 on gp120- or tat-induced reduction of [3H] dopamine uptake ([3]; co-incubation with 100 nM E2): reversed this reduction

CN1CCc2cccc3c2[C@H]1Cc1ccc(O)c(O)c1-3 [APO, apomorphine]
peak ASR magnitude in PPI trials: gp120×drug interaction ([4]; 8-120 msec ISIs): significantly altered the gp120 dose response
peak ASR latency in PPI trials ([4]; rat, in vivo): did not have an impact on latency response
peak ASR magnitude, adaptation trials: apomorphine ([4]; rat, in vivo): attenuated the baseline of peak magnitude of the ASR

Fc1ccc(C(OCCN2CCN(CCCc3ccccc3)CC2)c2ccc(F)cc2)cc1 [GBR-12909]
neurotoxicity of GBR 12909 alone ([5]; doses from 0.05 to 6 μM): not neurotoxic

C[C@]12CC[C@@H]3c4ccc(O)cc4C[C@@H](CCCCCCCCC[S+]([O-])CCCC(F)(F)C(F)(F)F)[C@H]3[C@@H]1CC[C@@H]2O (stereo partly shown) [ICI-182,780]
blockade of T (10 nM) neuroprotection ([1]; ICI-182,780 100 nM pretreatment): fully blocked
neuroprotection against synergistic toxicity of HIV proteins plus cocaine (percent neuronal death) ([1]; 15 hours): nor was it neuroprotective against the toxic challenge
toxicity alone vs Locke's buffer ([1]; substance alone, 15 hours): not more toxic to the cultures than was Locke's buffer
effect of ICI 182,780 on E2 attenuation of tat+gp120-induced fluorescence ([2]; 100 nM E2+1 μM ICI 182,780): Neither progesterone nor E2+ICI 182,780 values differed significantly from control values

C[C@]12CCC(=O)C[C@@H]1CC[C@@H]1[C@@H]2CC[C@]2(C)[C@@H](O)CC[C@@H]12 [DHT, 5α-Androstan-17β-ol-3-one; 17β-Hydroxy-5α-androstan-3-one]
concentration dependence of effect on percent neuronal death [1, 6]: no concentration-dependent effect
magnitude of cell death vs Locke's buffer control [1]: significantly greater than that observed with Locke's Buffer control
neuroprotection against synergistic toxicity of HIV proteins plus cocaine (percent neuronal death) ([1]; 15 hours): significant neuroprotection

CN1CCc2cc(Cl)c(O)cc2[C@@H](c2ccccc2)C1 [SCH 23390]
neuronal cell viability, SCH 23390 alone ([5]; 0.1 to 10 μM): did not cause any changes in neuronal cell viability

C[C@]12CC[C@@H]3c4ccc(O)cc4CC[C@H]3[C@@H]1CC[C@H]2O [17α-E2]
neuroprotection against synergistic toxicity of HIV proteins plus cocaine (percent neuronal death) ([1]; 15 hours): not significantly different from the synergistic toxicity control

CC(=O)[C@H]1CC[C@H]2[C@@H]3CCC4=CC(=O)CC[C@]4(C)[C@H]3CC[C@]12C [PROG, progesterone]
concentration dependence of effect on percent neuronal death [1, 6]: no concentration-dependent effect
magnitude of cell death vs Locke's buffer control [1]: significantly greater than that observed with Locke's Buffer control
neuroprotection against synergistic toxicity of HIV proteins plus cocaine (percent neuronal death) ([1]; 15 hours): significant neuroprotection
effect of hormone on tat+gp120-induced fluorescence [2]: had no effect on tat+gp120-induced fluorescence

N=c1c[n+](N2CCOCC2)[n-]o1 [SIN-1, 3-morpholinosydnonimine]
lowest concentration with significant increase in fluorescence ([2]; SIN-1 0-500 μM): 5 µM

CC(C)CCC[C@@H](C)[C@H]1CC[C@H]2[C@@H]3CC=C4C[C@@H](O)CC[C@]4(C)[C@H]3CC[C@]12C [Cholesterol]
concentration dependence of effect on percent neuronal death [1, 6]: concentration-dependent effect of cholesterol with a significant linear decrease in percent neuronal death
concentration giving maximal / full neuroprotection [1, 6]: 100 nM
magnitude of cell death vs Locke's buffer control [1]: not significantly different from that observed by Locke's buffer incubation
neuroprotection against synergistic toxicity of HIV proteins plus cocaine (percent neuronal death) ([1]; 15 hours): Significant neuroprotection

Reference: patent US20080306019A1, “Dopamine Receptor Agonists in the Treatment and Prevention of Hiv-Induced Dementia” (priority 2005, published 2008)
